# Target: T1, human TLR9 (Homo sapiens, UniProt Q9NR96)
# T1 sequence (Q9NR96 26-1032): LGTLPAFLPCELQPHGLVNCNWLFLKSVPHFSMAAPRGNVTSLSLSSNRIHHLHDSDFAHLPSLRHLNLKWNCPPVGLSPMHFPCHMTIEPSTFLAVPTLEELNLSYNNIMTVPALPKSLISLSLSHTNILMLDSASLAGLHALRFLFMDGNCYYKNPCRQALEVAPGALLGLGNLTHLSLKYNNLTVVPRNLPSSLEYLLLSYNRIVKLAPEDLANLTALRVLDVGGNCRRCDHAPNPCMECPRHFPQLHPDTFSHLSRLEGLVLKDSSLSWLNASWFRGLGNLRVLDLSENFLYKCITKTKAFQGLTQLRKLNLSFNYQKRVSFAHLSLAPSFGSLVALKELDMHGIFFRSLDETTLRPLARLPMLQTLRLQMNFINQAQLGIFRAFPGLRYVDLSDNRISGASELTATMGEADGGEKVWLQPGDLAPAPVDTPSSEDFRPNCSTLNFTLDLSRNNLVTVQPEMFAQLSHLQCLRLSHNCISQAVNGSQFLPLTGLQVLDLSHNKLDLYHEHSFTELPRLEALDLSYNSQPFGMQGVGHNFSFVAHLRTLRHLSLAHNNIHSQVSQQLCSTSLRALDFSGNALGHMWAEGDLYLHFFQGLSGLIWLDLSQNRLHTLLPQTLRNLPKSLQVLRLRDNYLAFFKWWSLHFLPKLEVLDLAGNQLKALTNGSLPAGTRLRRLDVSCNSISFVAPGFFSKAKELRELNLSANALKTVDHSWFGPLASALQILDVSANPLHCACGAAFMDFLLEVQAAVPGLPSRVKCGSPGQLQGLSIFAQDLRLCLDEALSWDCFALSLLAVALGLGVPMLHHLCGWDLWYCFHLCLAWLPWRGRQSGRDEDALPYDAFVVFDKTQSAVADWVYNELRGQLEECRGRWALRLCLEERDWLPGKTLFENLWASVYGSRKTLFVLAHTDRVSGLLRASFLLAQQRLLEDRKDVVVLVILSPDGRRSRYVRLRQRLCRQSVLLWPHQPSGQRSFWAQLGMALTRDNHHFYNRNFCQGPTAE
# Assay: HEK293-Blue-hTLR-9 cells assay
# Assay type: cell-based
# Settings: HEK293-Blue-hTLR9 cells, SEAP reporter, ODN2006 stimulation, 20 hrs
# Text: HEK293-Blue-hTLR-9 Cells Assay:
# A stable HEK293-Blue-hTLR-9 cell line was purchased from InvivoGen (Cat. #: hkb-htlh9, San Diego, Calif., USA). These cells were originally designed for studying the stimulation of human TLR9 by monitoring the activation of NF-κB. A SEAP (secreted embryonic alkaline phosphatase) reporter gene was placed under the control of the IFN-β minimal promoter fused to five NF-κB and AP-1-binding sites. The SEAP was induced by activating NF-κB and AP-1 via stimulating HEK-Blue hTLR9 cells with TLR9 ligands. Therefore the reporter expression was declined by TLR9 antagonist under the stimulation of a ligand, such as ODN2006 (Cat. #: tlrl-2006-1, Invivogen, San Diego, Calif., USA), for incubation of 20 hrs. The cell culture supernatant SEAP reporter activity was determined using QUANTI-Blue™ kit (Cat. #: rep-qb1, Invivogen, San Diego, Calif., USA) at a wavelength of 640 nm, a detection medium that turns purple or blue in the presence of alkaline phosphatase.
# HEK293-Blue-hTLR9 cells were incubated at a density of 250,000-450,000 cells/mL in a volume of 170 μL in a 96-well plate in Dulbecco's Modified Eagle's medium (DMEM) containing 4.5 g/L glucose, 50 U/mL penicillin, […], […], 2 mM L-glutamine, 10% (v/v) heat-inactivated fetal bovine serum with addition of 20 sL test compound in a serial dilution in the presence of final DMSO at 1% and 10 sL of 20 uM ODN2006 in above DMEM, perform incubation under 37° C. in a CO2 incubator for 20 hrs. Then 20 sL of the supernatant from each well was incubated with 180 μL Quanti-blue substrate solution at 37° C. for 2 hrs and the absorbance was read at 620-655 nm using a spectrophotometer. The signalling pathway that TLR9 activation leads to downstream NF-x3B activation has been widely accepted, and therefore similar reporter assay was modified for evaluating TLR9 antagonist.
row,SMILES,IC50
1,"N#Cc1ccc(N2CC(C(=O)NC[C@@H]3CNCCO3)C3(CC3)C2)c2nccnc12 (single isomer, unassigned) [Example 71A]",3.8 µM
2,"C[C@H]1CN(c2ccc(C#N)c3ncccc23)C[C@@H]1C(=O)NC1CCN(C)CC1 [Example 16, (3R,4R)-1-(8-cyano-5-quinolyl)-4-methyl-N-(1-methyl-4-piperidyl)pyrrolidine-3-carboxamide]",4.6 µM
3,"N#Cc1ccc(N2C[C@@H](C(F)(F)F)[C@H](C(=O)N[C@H]3CNC[C@H]3F)C2)c2cccnc12 [Example 47, Trans-1-(8-cyano-5-quinolyl)-N-[(3S,4R)-4-fluoropyrrolidin-3-yl]-4-(trifluoromethyl)pyrrolidine-3-carboxamide]",23.1 µM
4,"CN(C)CC1CC(NC(=O)C2CN(c3ccc(C(F)(F)F)c4nccnc34)CC23CC3)C1 (centres unmarked) [Example 26, N-[3-[(dimethylamino)methyl]cyclobutyl]-5-[8-(trifluoromethyl)quinoxalin-5-yl]-5-azaspiro[2.4]heptane-7-carboxamide]",11.5 µM
5,"CN1CCC(NC(=O)[C@H]2CN(c3ccc(C#N)c4nccnc34)C[C@@H]2C(F)(F)F)CC1 [Example 1, (3R,4R)-1-(8-cyanoquinoxalin-5-yl)-N-(1-methyl-4-piperidyl)-4-(trifluoromethyl) pyrrolidine-3-carboxamide]",5.2 µM
6,"N#Cc1ccc(N2C[C@H](C(=O)NC3CCN(C4CCNCC4)CC3)[C@@H](C(F)(F)F)C2)c2nccnc12 [Example 35, (3R,4R)-1-(8-Cyanoquinoxalin-5-yl)-N-[1-(4-piperidyl)-4-piperidyl]-4-(trifluoromethyl)pyrrolidine-3-carboxamide]",4.3 µM
7,"CN1CCCC(CNC(=O)C2CN(c3ccc(C#N)c4ncccc34)CC23CC3)C1 (centres unmarked) [Example 51, 5-(8-Cyano-5-quinolyl)-N-[(1-methyl-3-piperidyl)methyl]-5-azaspiro[2.4]heptane-7-carboxamide]",2 µM
8,"CN1CCC(NC(=O)[C@@H]2CN(c3ccc(C#N)c4ncccc34)C[C@H]2C2CC2)CC1 (relative stereo) [Example 14, Trans-1-(8-cyano-5-quinolyl)-4-cyclopropyl-N-(1-methyl-4-piperidyl)pyrrolidine-3-carboxamide]",4.5 µM
9,"CN1CCC(NC(=O)[C@H]2CN(c3ccc(C(F)(F)F)c4nccnc34)C[C@@H]2C(F)(F)F)CC1 [Example 2, (3R,4R)—N-(1-methyl-4-piperidyl)-4-(trifluoromethyl)-1-[8-(trifluoromethyl)quinoxalin-5-yl]pyrrolidine-3-carboxamide]",5.5 µM
10,"CN1CCC(NC(=O)[C@@H]2CN(c3ccc(C#N)c4ncccc34)C[C@H]2C(F)(F)F)CC1 (relative stereo) [Example 17, Trans-1-(8-cyano-5-quinolyl)-N-(1-methyl-4-piperidyl)-4-(trifluoromethyl)pyrrolidine-3-carboxamide]",1 µM
11,C[C@@H]1CN(c2ccc(C#N)c3ncccc23)C[C@H]1C(=O)NC1CCN(C)CC1 (relative stereo) [Example 28],6.4 µM
12,"O=C(NC1C2CCC1CNC2)C1CN(c2ccc(C(F)(F)F)c3nccnc23)CC12CC2 (centres unmarked) [Example 12, N-(3-azabicyclo[3.2.1]octan-8-yl)-5-[8-(trifluoromethyl)quinoxalin-5-yl]-5-azaspiro[2.4]heptane-7-carboxamide]",1 µM
13,"C[C@H]1CN(c2ccc(C#N)c3nccnc23)C[C@@H]1C(=O)NC1CCN(C2CCNCC2)CC1 [Example 60, (3R,4R)-1-(8-cyanoquinoxalin-5-yl)-4-methyl-N-[1-(4-piperidyl)-4-piperidyl]pyrrolidine-3-carboxamide]",3.2 µM
14,"C[C@H]1CN(c2ccc(C#N)c3nccnc23)C[C@@H]1C(=O)NC1CCN(C)CC1 [Example 3, (3R,4R)-1-(8-cyanoquinoxalin-5-yl)-4-methyl-N-(1-methyl-4-piperidyl)pyrrolidine-3-carboxamide]",5.7 µM
15,"C[C@H]1CN(c2ccc(C#N)n3nccc23)C[C@@H]1C(=O)NC1CCN(C)CC1 [Example 44, (3R,4R)-1-(7-cyanopyrazolo[1,5-a]pyridin-4-yl)-4-methyl-N-(1-methyl-4 piperidyl)pyrrolidine-3-carboxamide]",9.1 µM
16,"CN1CCC(NC(=O)C2CN(c3ccc(C#N)c4nccnc34)CC23CC3)CC1 (single isomer, unassigned) [Example 7B, 5-(8-Cyanoquinoxalin-5-yl)-N-(1-methyl-4-piperidyl)-5-azaspiro[2.4]heptane-7-carboxamide]",3.3 µM
17,"NC1CC(NC(=O)C2CN(c3ccc(C(F)(F)F)c4nccnc34)CC23CC3)C1 (centres unmarked) [Example 38, N-(3-Aminocyclobutyl)-5-[8-(trifluoromethyl)quinoxalin-5-yl]-5-azaspiro[2.4]heptane-7-carboxamide]",12.3 µM
18,"C[C@@H]1CN(c2ccc(C#N)c3ncccc23)C[C@H]1C(=O)NC1CCCNCC1 (single isomer, unassigned) [Example 52A, Trans-N-(azepan-4-yl)-1-(8-cyano-5-quinolyl)-4-methyl-pyrrolidine-3-carboxamide]",12.3 µM
19,"O=C(NC1CC2CNCC2C1)C1CN(c2ccc(C(F)(F)F)c3nccnc23)CC12CC2 (centres unmarked) [Example 21, N-(1,2,3,3a,4,5,6,6a-octahydrocyclopenta[c]pyrrol-5-yl)-5-[8-(trifluoromethyl)quinoxalin-5-yl]-5-azaspiro[2.4]heptane-7-carboxamide]",14 µM
20,"C[C@H]1CN(c2ccc([N+](=O)[O-])c3ncccc23)C[C@@H]1C(=O)NC1CCN(C)CC1 [Example 27, (3R,4R)-4-Methyl-N-(1-methyl-4-piperidyl)-1-(8-nitro-5-quinolyl)pyrrolidine-3-carboxamide]",4.5 µM
21,"NC1CC2(C1)CC(NC(=O)C1CN(c3ccc(C(F)(F)F)c4nccnc34)CC13CC3)C2 (centres unmarked) [Example 22, N-(6-aminospiro[3.3]heptan-2-yl)-5-[8-(trifluoromethyl)quinoxalin-5-yl]-5-azaspiro[2.4]heptane-7-carboxamide]",8.2 µM
22,"O=C(NC1CC2CCC(C1)N2)C1CN(c2ccc(C(F)(F)F)c3nccnc23)CC12CC2 (centres unmarked) [Example 23, N-(8-azabicyclo[3.2.1]octan-3-yl)-5-[8-(trifluoromethyl)quinoxalin-5-yl]-5-azaspiro[2.4]heptane-7-carboxamide]",10.4 µM
23,"N#Cc1ccc(N2CC(C(=O)NC[C@@H]3CNCCO3)C3(CC3)C2)c2nccnc12 (single isomer, unassigned) [Example 71B]",1.9 µM
24,"CC[C@@H]1CN(c2ccc(C#N)c3ncccc23)C[C@H]1C(=O)NC1CCN(C)CC1 (relative stereo) [Example 29, Trans-1-(8-cyano-5-quinolyl)-4-ethyl-N-(1-methyl-4-piperidyl)pyrrolidine-3-carboxamide]",6.9 µM
25,"C[C@@H]1CN(c2ccc(C#N)c3ncccc23)C[C@H]1C(=O)NC1CCCNCC1 (single isomer, unassigned) [Example 52B, Trans-N-(azepan-4-yl)-1-(8-cyano-5-quinolyl)-4-methyl-pyrrolidine-3-carboxamide]",11.6 µM
26,"O=C(NC1C2CCCC1CNC2)C1CN(c2ccc(C(F)(F)F)c3nccnc23)CC12CC2 (centres unmarked) [Example 8, N-(3-azabicyclo[3.3.1]nonan-9-yl)-5-[8-(trifluoromethyl)quinoxalin-5-yl]-5-azaspiro[2.4]heptane-7-carboxamide]",8.3 µM

# From US20210323977A1, “PYRROLIDINYL AMIDE COMPOUNDS FOR THE TREATMENT OF AUTOIMMUNE DISEASE” (Hoffmann-La Roche Inc., priority 2018, published 2021)
